Data published in article PMC7554048, “FBI-1 enhanced the resistance of triple-negative breast cancer cells to chemotherapeutic agents via the miR-30c/PXR axis” (Cell Death & Disease, 2020).

Assay: Olaparib sustained in cultured TNBC cells, LC-MS/MS (half-life)
Format: in vitro ADME, human
Conditions: TNBC cells (PDC No. 3 and 9) overexpressing FBI-1
Procedure: TNBC cells transfected with plasmids were used for the pharmacokinetic experiments to examine the amount of olaparib sustained in the cells. For the cell-based experiments, cells were treated with 1 μmol/L concentration of olaparib for 12 h[33]. Then, cells were harvested at indicated time-points. For the animal experiments, TNBC cells were injected into the subcutaneous position to form subcutaneous tumor tissues. After 2–3 weeks’ growth, when the tumor volumes reached 1500–2000 mm^3, the solution of olaparib was injected into the subcutaneous tumors. Then, the tumor tissues were harvested at indicated times[34],[35]. The olaparib in cells or tumor tissues was extracted by acetonitrile (ACN), and the amount of olaparib sustained in cells or tumor tissues at each time point was determined by liquid chromatography–mass spectrometry/mass spectrometry (LC-MS/MS), following the methods established by Krens et al.[36]. The sustaining rates of olaparib were calculated as (the amount of olaparib at each time)/(the amount of olaparib at 0-time) × 100%. The sustaining curves or the half-time life (t1/2) of olaparib was obtained by the sustained rates of olaparib.

Structure (SMILES): CC(=O)N1CCN(c2ccc(OCC3COC(Cn4ccnc4)(c4ccc(Cl)cc4Cl)O3)cc2)CC1 (stereo not shown) [ketoconazole]
- effect of ketoconazole on FBI-1-accelerated elimination or clearance of olaparib: almost blocked the effect of FBI-1 on olaparib in TNBC cells
